Each compound was assayed against T1, human TGR5 (h-TGR5) (Homo sapiens, UniProt Q8TDU6) (assay: TGR5/CRE-Luciferiase Assay (HEK 293 hTGR5/CRE-Luc cells)). Conditions: h-TGR5 CRE-Luc EC50, Table 1; read-out: CRE-Luc (EC50).
T1 construct: expressed in transfected cells
T1 sequence (Q8TDU6 1-330): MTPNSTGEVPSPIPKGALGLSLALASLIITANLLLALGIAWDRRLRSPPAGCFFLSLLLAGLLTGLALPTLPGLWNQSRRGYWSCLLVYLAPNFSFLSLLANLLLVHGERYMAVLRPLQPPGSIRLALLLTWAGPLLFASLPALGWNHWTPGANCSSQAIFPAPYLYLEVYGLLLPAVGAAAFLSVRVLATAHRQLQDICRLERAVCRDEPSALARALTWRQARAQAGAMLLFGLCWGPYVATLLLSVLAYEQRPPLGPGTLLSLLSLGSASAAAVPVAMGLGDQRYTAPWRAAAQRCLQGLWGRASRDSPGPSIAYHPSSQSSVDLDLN
Assay type: cell-based
Procedure: Compounds were serially diluted in DMEM containing 5% DMSO and 5 μL of compound or media alone was transferred to each well and plates were incubated for 6 hours. Following incubation, 30 μL of lysis/luciferase buffer was added to each well. The luciferase activity was then measured on the EnVision™ plate reader and the dose response data was analyzed using ActivityBase.
In the following tables, EC50 values determined according to the TGR5 cAMP Assay described herein (cAMP); EC50 values determined according to the TGR5/CRE-Luciferiase Assay described herein (CRE-Luc). […] The following compounds in Tables 1 and 2 were made by using procedures described in the above Schemes and Examples, and, where applicable, by making any necessary substitutions of known materials that one skilled in the art would ordinarily understand how to do.

EC50, 100 to 1000 nM:
CC(C)(O)c1cccc(F)c1CSc1ncc(C(C)(C)c2ccc(Cl)c(Cl)c2)n1-c1ccc(F)cc1 [2-{2-[({5-[1-(3,4-dichlorophenyl)-1-methylethyl]-1-(4-fluorophenyl)-1H-imidazol-2-yl}thio)methyl]-3-fluorophenyl}propan-2-ol], CC(C)(O)c1cc(CSc2ncc(C(C)(C)c3ccc(Cl)c(Cl)c3)n2-c2ccc(F)cc2)ccc1Cl [2-{2-chloro-5-[({5-[1-(3,4-dichlorophenyl)-1-methylethyl]-1-(4-fluorophenyl)-1H-imidazol-2-yl}thio)methyl]phenyl}propan-2-ol], CC(C)(O)c1ccc(CSc2ncc(C(C)(C)c3ccc(Cl)c(Cl)c3)n2-c2ccc(F)cc2)c(Cl)c1 [2-{3-chloro-4-[({5-[1-(3,4-dichlorophenyl)-1-methylethyl]-1-(4-fluorophenyl)-1H-imidazol-2-yl}thio)methyl]phenyl}propan-2-ol], CC(C)(C(=O)O)c1ccc(CSc2ncc(C(C)(C)c3ccc(Cl)c(Cl)c3)n2-c2ccc(F)cc2)c(F)c1 [2-{4-[({5-[1-(3,4-dichlorophenyl)-1-methylethyl]-1-(4-fluorophenyl)-1H-imidazol-2-yl}thio)methyl]-3-fluorophenyl}-2-methylpropanoic acid], CC(C)(O)c1ccc(CSc2ncc(C(C)(C)c3ccc(Cl)c(Cl)c3)n2-c2ccc(F)cc2)c(F)c1 [2-{4-[({5-[1-(3,4-dichlorophenyl)-1-methylethyl]-1-(4-fluorophenyl)-1H-imidazol-2-yl}thio)methyl]-3-fluorophenyl}propan-2-ol], CC(C)(O)c1cc(CSc2ncc(C(C)(C)c3ccc(Cl)c(Cl)c3)n2-c2ccc(F)cc2)ccc1F [2-{5-[({5-[1-(3,4-dichlorophenyl)-1-methylethyl]-1-(4-fluorophenyl)-1H-imidazol-2-yl}thio)methyl]-2-fluorophenyl}propan-2-ol], CC(C)(c1ccc(Cl)c(Cl)c1)c1cnc(S(=O)(=O)C(C)(C)c2c(F)cccc2Cl)n1-c1ccc(F)cc1 [2-{[1-(2-chloro-6-fluorophenyl)-1-methylethyl]sulfonyl}-5-[1-(3,4-dichlorophenyl)-1-methylethyl]-1-(4-fluorophenyl)-1H-imidazole]

EC50, 1000 to 10000 nM:
CC(Sc1ccc(F)cc1Cl)c1ncc(C(C)(C)c2ccc(Cl)c(Cl)c2)n1-c1ccc(F)cc1 (stereo not drawn) [2-{1-[(2-chloro-4-fluorophenyl)thio]ethyl}-5-[1-(3,4-dichlorophenyl)-1-methylethyl]-1-(4-fluorophenyl)-1H-imidazole], CC(C)(C(=O)O)c1ccc(F)c(CSc2ncc(C(C)(C)c3ccc(Cl)c(Cl)c3)n2-c2ccc(F)cc2)c1 [2-{3-[({5-[1-(3,4-dichlorophenyl)-1-methylethyl]-1-(4-fluorophenyl)-1H-imidazol-2-yl}thio)methyl]-4-fluorophenyl}-2-methylpropanoic acid], CC(C)(C(=O)O)c1cc(CSc2ncc(C(C)(C)c3ccc(Cl)c(Cl)c3)n2-c2ccc(F)cc2)ccc1F [2-{5-[({5-[1-(3,4-dichlorophenyl)-1-methylethyl]-1-(4-fluorophenyl)-1H-imidazol-2-yl}thio)methyl]-2-fluorophenyl}-2-methylpropanoic acid], CC(C)(Oc1cc(-n2c(C(C)(C)c3ccc(Cl)c(Cl)c3)cnc2SCc2ccc(F)cc2Cl)ccc1F)C(=O)O [2-{[5-(2-{[(2-chloro-4-fluorophenyl)methyl]thio}-5-[1-(3,4-dichlorophenyl)-1-methylethyl]-1H-imidazol-1-yl)-2-fluorophenyl]oxy}-2-methylpropanoic acid], CC(C)(c1ccc(Cl)c(Cl)c1)c1cnc(S(=O)(=O)Cc2ccc(F)cc2Cl)n1-c1ccc(F)cc1 [2-{[(2-chloro-4-fluorophenyl)methyl]sulfonyl}-5-[1-(3,4-dichlorophenyl)-1-methylethyl]-1-(4-fluorophenyl)-1H-imidazole]
